# Source: US5298616A, “Sulfated O-polysaccharide-trehaloses” (Hoffmann-La Roche Inc., priority 1990, dated 1994)
# How the values were obtained:
# thrombin = thrombin (Homo sapiens, UniProt P00734); experiment: Inhibition of Thrombin in the Chromogenic Substrate Assay; type: biochemical; settings: amidolytic activity reduced by 50% vs plasma control; anti-thrombin III, S-2238
# Procedure: (§1) The blood coagulation-inhibiting activity was determined as follows:
# The buffer solution used consisted of 50 mM Tris buffer, 180 mM NaCl, 7.5 mM EDTA Na2, 1% PEG 6000 and 0.02% Tween 80, pH 8.4. The sample consisted of 50 μl of buffer, 30 μl of anti-thrombin Ill (1 U/ml), Kabi Diagnostics) and 20 μl of plasma which contained various concentrations of test compounds. 30 μl of sample solution and 20 μl of water with 180 μl of thrombin were added to the test cuvette in the automatic analyzer. […] The liberation of pNA (p-nitroaniline) was followed during 60 seconds at 405 nm in 10 second intervals in comparison to water as the blank.
# Factor Xa [1] = target: T1, Factor Xa (Bos taurus, UniProt P00743); experiment: anti-Xa Clotting Assay; type: biochemical; settings: concentration which doubles the coagulation time vs control; citrated plasma
# T1 sequence (P00743 234-492 limits assumed): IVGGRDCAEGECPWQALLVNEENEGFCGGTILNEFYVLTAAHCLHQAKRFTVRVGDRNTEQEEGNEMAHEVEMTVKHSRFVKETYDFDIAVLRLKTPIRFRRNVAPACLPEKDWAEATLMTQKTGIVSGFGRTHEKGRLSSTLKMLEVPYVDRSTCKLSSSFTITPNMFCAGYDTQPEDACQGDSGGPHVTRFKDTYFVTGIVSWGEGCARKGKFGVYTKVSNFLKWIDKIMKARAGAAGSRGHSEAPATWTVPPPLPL
# Procedure: as §1
# anti-Xa Clotting Assay: 25 μl of citrated plasma having various concentrations of test compound are mixed with 75 μl of Factor Xa (Diagnostic Reagents, Thame, Oxon, Great Britain) diluted 1:100 in 0.63% citrate buffer (pH 7.3) which contains 41 mM imidazole, 82 mM NaCl and 0.1% albumin. After warming to 37° C. for 2 minutes 200 μl of a 1:1 mixture of Factor X Deficient Plasma (Diagnostic Reagents) and Platelet Substitute (Diagnostic Reagents) are added and the mixture is incubated at 37° C. for 20 seconds. After the addition of 100 μl of prewarmed 50 mM calcium chloride solution the coagulation time is measured in a Fibrometer.
# (§2) The activity of the test compound is given as the IC50, which is that concentration [μg/ml] which leads to a coagulation time which is double the control value.
# citrated human plasma = experiment: aPTT (activated partial thromboplastin time) Test; type: biochemical; settings: concentration which doubles the coagulation time vs control
# Procedure: as §1
# aPTT (activated partial thromboplastin time) Test (see Walenga et al., CRC Critical Reviews in Laboratory Sciences 22 (4) 361-389 (1986)): 100 μl of citrated human plasma, which contains various concentrations of test compound, is incubated at 37° C. for 8 minutes with 100 μl of Activated Thrombofax (Ortho Diagnostics, Raritan, N.J., U.S.A.). 100 μl of prewarmed 25 mM calcium chloride solution are then added and the coagulation time is measured in a Fibrometer Coagulation Timer (Becton Dickinson, Basle).
# as §2
# rat smooth muscle cells = experiment: anti-proliferative activity in cell cultures; type: cell-based; settings: for Anti-proliferative activity % inhibition: 100 μg/ml test substance, 7 days, vs non-inhibited growth
# Procedure: The anti-proliferative activity of the substances was determined in cell cultures as follows: rat smooth muscle cells (cultivated in DMEM with 10% FCS at 37° C. and 5% CO2) were seeded in 24 well cell culture plates with a density of 8×10^3 cells/well. After 4 hours the number of adhered cells was determined and the substances to be tested ([…]) were added. Cells to which no substance was added served as a comparison and heparin (100 μg/ml) served as a positive control. The cells were incubated for 7 days and then the cell number was determined. The antiproliferative activity of the individual substances was calculated as the % inhibition in comparison to non-inhibited growth: [formula] wherein cell number(d=O) cell number after 4 h cell number(-)=cell number to which no test
# substances was added, after 7 days.
# cell number(inhib)=cell number with
# 100 μg/ml of the test substance.
# Factor Xa [2] = target: T1, Factor Xa; experiment: Inhibition of Factor Xa in the Chromogenic Substrate Assay; type: biochemical; settings: amidolytic activity reduced by 50% vs plasma control; S-2222
# Procedure: as §1
# Inhibition of Thrombin or Factor Xa in the Chromogenic Substrate Assay (Teien et al., Thrombosis Research 10, 399-410 (1977)): The test was performed in a Cobas-Bio centrifugal automatic spectrophotometer. The buffer solution used consisted of 50 mM Tris buffer, 180 mM NaCl, 7.5 mM EDTA Na2, 1% PEG 6000 and 0.02% Tween 80, pH 8.4. The sample consisted of 50 μl of buffer, 30 μl of anti-thrombin Ill (1 U/ml), Kabi Diagnostics) and 20 μl of plasma which contained various concentrations of test compounds. 30 μl of sample solution and 20 μl of water with 180 μl of thrombin were added to the test cuvette in the automatic analyzer. After incubation at 37° C. for 240 seconds 60 μl of S-2238 (H-D-Phe-Pip-Arg-NH.pNA, Kabi Diagnostics, Mondal, Sweden, 0.75 mM in water) and 20 μl of water were added. The liberation of pNA (p-nitroaniline) was followed during 60 seconds at 405 nm in 10 second intervals in comparison to water as the blank. The inhibitory activity is given as the IC50, which is the concentration [μg/ml] at which the amidolytic activity of thrombin is reduced by 50% in comparison to the plasma control value.
# The inhibition of Factor Xa was measured in the same manner using a solution of Factor Xa (2.8 nkat/ml and 2 mM S-2222 (Bz-CO-Ile-Glu-Arg-NH.pNA, Kabi Diagnostics) in water in place of thrombin and, respectively, S-2238.
Substance,"Anti-coagulation activity IC50, Amidolytic activity Thrombin (thrombin) [µg/mL]","Anti-coagulation activity IC50, Coagulation inhibition Xa (Factor Xa [1]) [µg/mL]","Anti-coagulation activity IC50, Coagulation inhibition aPTT (citrated human plasma) [µg/mL]",anti-proliferative activity (rat smooth muscle cells; result in words),"Anti-coagulation activity IC50, Amidolytic activity F.Xa (Factor Xa [2]) [µg/mL]",Anti-proliferative activity % inhibition (rat smooth muscle cells) [%]
Heparin [reference compound],1.9,0.6,1.2,anti-proliferatively active,2.7,
"sulphated 4,4'-bis -O-(β-D-glucopyranosyl)-α,α-D-trehalose [Example 7C]",> 1000,34,13.5,,> 1000,49
"sulphated 4,4'-bis-O-(β-D-maltosyi)-α,α-D-trehalose [Example 6D]",> 1000,28.5,14.5,,900,67
"sulphated 4-O -(β-D-maltotriosyl)-α,α-D-trehalose [Example 4C]",> 1000,32,11,,> 1000,64
"sulphated 4-O-(α-D-maltotriosyl)-α,α-D-trehalose [Example 1G]",> 1000,31,11,,960,57
"sulphated 4-O-(β-D-cellobiosyl)-α,α-D-trehalose [Example 5C]",> 1000,69,33,,> 1000,39
"sulphated 4-O-(β-D-glucopyranosyl) -α,α-D-trehalose [Example 2C]",> 1000,115,40,,> 1000,38
"sulphated 4-O-(β-D-maltosyl)-α,α-D-trehalose [Example 3C]",> 1000,33.5,12,,> 1000,59
